Data set [1] concerns the target T1, HIV-1 IN (Human immunodeficiency virus type 1 group M subtype B, UniProt P04585). Put plainly: HIV-1 IN 3′processing assay. The class given is biochemical. Particulars: 600 nM IN; increasing concentrations.
A further data set concerns the target T2, MOS1 (Drosophila mauritiana, UniProt Q7JQ07).
T2 construct: involving the full-length Mos1 transposase (MOS1) was recently solved; made in house
Nature of the data set: MOS1 in vitro activities, overall statements of the discussion. Particulars: in vitro assays of MOS1 activities; discussion. The format is biochemical, D. mauritiana. Here is the method:
(§1) In vitro transposition reactions were performed using pBC-3T3 as both the donor DNA and the target, as previously described. Briefly, the basic transposition reaction mixtures contained 10 mM Tris-HCl (pH 9), 50 mM NaCl, 20 mM MgCl2, 0.5 mM EDTA, 5% glycerol, 5 ng/ml BSA, 600 ng pBC-3T3, and 80 nM purified MBP-MOS1 (added last) in a volume of 20 µl. Inhibitors (25 or 10 µM, as specified) or DMSO (2%) were added to the reaction mixtures before the transposase. The reactions were allowed to proceed for 30 min at 30°C. After phenol-chloroform extraction and ethanol precipitation, 10% of the reaction mixture was transformed in electro-competent JM109 E. coli (2 mm cuvette, 1.5 kV in a MicroPulser™BioRad). Appropriate dilutions of each reaction mixture were plated on LB-tetracycline (12.5 µg/ml) agar and LB-chloramphenicol (80 µg/ml) agar to score the transposition rate. The transposition rate was the number of Tet^R colonies divided by the number of Chloram^R plus Tet^R colonies. Each condition was done at least three times in independent experiments.
Basic excision reaction mixtures contained 10 mM Tris-HCl (pH 9), 50 mM NaCl, 20 mM MgCl2, 0.5 mM EDTA, 0.5 mM DTT, 100 ng BSA, 600 ng of super-coiled pBC-3T3, and 80 nM MBP-MOS1 (added last) in a volume of 20 µl. Molecules (25 or 10 µM, as specified) or DMSO (2%) were added to the reaction mixtures before the transposase. The reactions were allowed to proceed at 30°C for 30 min before 2 µl of stop solution (loading buffer) were added. The reaction mixtures were then incubated at 65°C for 10 min. Each reaction was analysed by overnight electrophoresis at 2.7 V/cm on a TAE-buffered 1% agarose gel with ethidium bromide (0.3 mg/ml). After electrophoresis, the gel was photographed on a transilluminator. ImageGauge 4.22 software (Fujifilm) was used to quantify the bands. Each condition was tested at least twice.
These assays were performed using pre-cleaved 3′ITRs (PC-ITR), i.e. ITRs in the configuration expected after excision. Double-strand ITRs were obtained by annealing equimolar amounts of 70-NTS-PN (5′[…]3′) and 70-TS-PC (5′[…]3′) single-strand oligonucleotides. Prior to annealing, the transferred strand (70-TS-PC) was 5′-end labelled using T4 polynucleotide kinase (Promega) and γ-^32P-ATP following the manufacturer's instructions. Oligonucleotides were provided by Eurofins MWG Biotech (Germany) or Eurogentec (Belgium). Reaction mixtures containing 10 mM Tris-HCl (pH 9), 50 mM NaCl, 1 mM DTT, 5% glycerol, 100 ng BSA, 100 nM of labelled PC-ITR and 100 nM MBP-MOS1 in a final volume of 20 µl were incubated at 30°C for 30 min. The pBC plasmid (which contained the cat gene, a hot-spot for Mos1 insertion) was then added to 30 ng/µL along with 5 mM MgCl2. Molecules (25 or 10 µM, as specified) or DMSO (2%) were added to the reaction mixtures along with the target DNA to estimate their effect on integration. Reactions were carried out for 3 hours at 30°C. 0.1 mg/ml proteinase K and 0.1% SDS were added to stop the reaction. DNA products were purified by phenol-chloroform extraction and ethanol precipitated using standard techniques. DNA products were resuspended in DNA loading buffer, then separated onto a 1% agarose gel in 1X TAE (Tris Acetate EDTA) buffer. The gel was dried onto a nitrocellulose membrane (Hybond N+, GE Healthcare), scanned using a Storm, and analysed with ImageQuant software. Signals were quantified using ImageQuant software. Efficiency of integration was calculated as the intensity of the integration signal divided by the intensity of free target signal plus integration signal. Each condition was tested at least twice.
All molecules were also tested in in vitro assays reproducing integration and excision reactions catalysed by MOS1. […] In contrast, E-resveratrol and E-ε-viniferin glucoside, which act more specifically on HIV-1 3′processing reaction, and E-piceid and E-pterostilbene, which is more efficient on the integration reaction, were not active on MOS1.

In data set [2] the target is T1, HIV-1 IN. Nature of the data set: HIV-1 IN in vitro concerted integration assay (processed or unprocessed donor DNA). Particulars: for differential effect between reactions: strand transfer / processed donor versus 3′processing / unprocessed donor: comparison of concerted integration and 3′processing results; for effect on integration from the processed DNA: processed donor DNA (strand transfer); for inhibition of integration from the unprocessed substrate: unprocessed donor DNA.

Another data set deals with 293T cells. Particulars: 72 hours treatment, 1–50 µM, MTS.
A further data set has as its target T3, Mos1 transposase (MOS1) (Drosophila mauritiana, UniProt Q7JQ07).
T3 construct: involving the full-length Mos1 transposase (MOS1) was recently solved; made in house
Put plainly: MOS1 in vitro transposition assay (genetic hop experiment). The class given is biochemical, D. mauritiana. Particulars: for inhibition at 25 µM: DMSO control as reference, read-out: inhibition of the whole MOS1 transposition activity. How it is done:
The wild type Mos1 transposase (MOS1: 345 amino acids) was produced and purified as a fusion protein linked to the maltose-binding protein by using the pMal-c2 system (New England Biolabs) and following the manufacturer's instructions.
as §1
To identify the natural stilbenes active on MOS1, the 17 molecules were tested using an in vitro genetic “hop” experiment, which is the most sensitive test available as yet. Purified MOS1 was incubated with the pBC-3T3 plasmid, which was used both as the transposon donor and the target plasmid. This plasmid contains the pBR322 tetracycline resistance gene (without promoter) framed by two Mos1 ITRs. This reconstitutes a pseudo-Mos1 element named 3T3. We took advantage of the fact that the cat gene (present in the pBC backbone) is a hotspot for Mos1 integration. […] Transposition events were recovered by bacterial transformation with selection for tetracycline resistance, as a gain-of-function landmark for transposition. […] Controls correspond to assays performed without molecule but with DMSO, which is routinely used as the solvent. […] To confirm the efficiency of the six molecules, they were similarly assayed at 10 µM ( figure 6B ). Since they appeared to be still active at 10 µM, they were further characterized in order to identify the targeted step of the transposition cycle.

The mark [3] stands for this setting: read-out: inhibition of concerted integration.

T3 sequence (Q7JQ07 whole entry): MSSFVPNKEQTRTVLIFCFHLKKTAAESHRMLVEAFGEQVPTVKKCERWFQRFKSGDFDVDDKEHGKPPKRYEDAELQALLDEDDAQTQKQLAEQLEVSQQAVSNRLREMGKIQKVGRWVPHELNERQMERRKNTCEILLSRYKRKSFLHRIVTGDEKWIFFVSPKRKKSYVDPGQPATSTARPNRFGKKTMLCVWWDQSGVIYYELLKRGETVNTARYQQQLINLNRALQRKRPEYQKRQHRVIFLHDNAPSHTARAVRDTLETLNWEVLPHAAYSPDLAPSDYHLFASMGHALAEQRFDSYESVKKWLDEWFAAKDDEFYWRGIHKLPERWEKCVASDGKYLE
T2 sequence (Q7JQ07 whole entry): as above

Consider `Oc1ccc(/C=C/c2cc(O)cc(O)c2)cc1` [E-resveratrol], for which the “inhibitory effect on 3′processing” value on HIV-1 IN [1] was “showed an inhibitory effect”. For the same compound, on MOS1, the “activity on MOS1” value is “not active”. Further, the “differential effect between reactions: strand transfer / processed donor versus 3′processing / unprocessed donor” value on HIV-1 IN [2] was “reaction than on integration”. Further, at HIV-1 IN [2] (increasing concentrations), the “effect on integration from the processed DNA” value (“effect on integration” below) is recorded as “without having any detectable effect” and the “inhibition of integration from the unprocessed substrate” value (shortened to “inhibition of integration”) is on record as “inhibit integration from the unprocessed substrate”.

Regarding `OCC1OC(Oc2cc(C=Cc3ccc(O)cc3)c3c(c2)OC(c2ccc(O)cc2)C3c2cc(O)cc(O)c2)C(O)C(O)C1O` (stereo not drawn) [E-ε-viniferin glucoside], the “inhibitory effect on 3′processing” value at HIV-1 IN [1] is given as “showed an inhibitory effect”. For the same compound, at MOS1, the “activity on MOS1” value was “not active”. The “cytotoxicity, cell survival” value with 293T cells is “showed some toxicity”. At HIV-1 IN [2], the “differential effect between reactions: strand transfer / processed donor versus 3′processing / unprocessed donor” value was “reaction than on integration”. Besides, on HIV-1 IN [2] (increasing concentrations), the “effect on integration” value was “without having any detectable effect” and the “inhibition of integration” value was “inhibit integration from the unprocessed substrate”.

On to `Oc1ccc([C@H]2c3c(O)cc(O)cc3[C@H]3c4c(cc(O)cc4C2C2c4cc(O)cc5c4[C@H](c4cc(O)cc(O)c4[C@@H]2c2ccc(O)cc2)[C@@H](c2ccc(O)cc2)O5)O[C@@H]3c2ccc(O)cc2)cc1` (stereo partly drawn) [isohopeaphenol], for which the “activity on MOS1” value on MOS1 was “not active”. Moreover, the inhibition at 10 µM at HIV-1 IN [2] (setting [3]) is below 5%.

In the case of `Oc1ccc(/C=C/c2cc(O)cc3c2[C@@H](c2cc(O)cc4c2[C@H](c2cc(O)cc(O)c2)[C@@H](c2ccc(O)cc2)O4)[C@H](c2ccc(O)cc2)O3)cc1` [E-miyabenol C], the inhibition at 10 µM on HIV-1 IN [2] (setting [3]) was below 5%.

As to `Cc1nnc(C(=O)NC(C)(C)c2nc(C(=O)NCc3ccc(F)cc3)c(O)c(=O)n2C)o1` [raltegravir, reference compound], on HIV-1 IN [1], the “inhibitory effect on 3′processing” value is listed as “inhibition property than the selected compounds”. On HIV-1 IN [2] (increasing concentrations), the “inhibition of concerted integration from processed and unprocessed donor” value (“inhibition of concerted integration” for short) is “always found better inhibitor than the selected compounds”.

With `Oc1cc(O)cc(-c2cc3ccc(O)cc3o2)c1` [moracin M], the inhibition at 10 µM at HIV-1 IN [2] (setting [3]) was below 5%.

Consider `Oc1cc(O)cc(/C=C/c2ccc(O)c(O)c2)c1` [E-piceatannol], for which, on HIV-1 IN [1], the “inhibitory effect on 3′processing” value was “showed an inhibitory effect”. Further, in the data set with 293T cells, the “cytotoxicity, cell survival” value is “showed some toxicity”. Besides, at HIV-1 IN [2] (increasing concentrations), the “effect on integration” value is recorded as “without having any detectable effect” and the “inhibition of integration” value is recorded as “inhibit integration from the unprocessed substrate”.

With `Oc1ccc(/C=C2/c3cc(O)cc(O)c3[C@H](c3ccc(O)cc3)[C@H]2c2cc(O)cc(O)c2)cc1` [quadrangularin A], on HIV-1 IN [1], the “inhibitory effect on 3′processing” value is given as “showed an inhibitory effect”. In addition, on Mos1 transposase (MOS1) (10 µM), the “activity against MOS1 in transposition assay” value (from here on “activity against MOS1”) was “still active”. The inhibition at 25 µM at Mos1 transposase (MOS1) (25 µM) is above 50%. The “activity on MOS1” value on MOS1 was “also active against MOS1 activities”. Moreover, the “differential effect between reactions: strand transfer / processed donor versus 3′processing / unprocessed donor” value at HIV-1 IN [2] is “better inhibitor of integration from unprocessed than from processed DNA”. Besides, the “inhibition of concerted integration” value at HIV-1 IN [2] (increasing concentrations) is recorded as “inhibited both activities”.

Turning to `Oc1ccc(C(O)C2c3cc(O)cc(O)c3[C@H](c3ccc(O)cc3)[C@H]2c2cc(O)cc(O)c2)cc1` (stereo partly drawn) [leachianol G], on HIV-1 IN [1], the “inhibitory effect on 3′processing” value is recorded as “low”. Besides, on Mos1 transposase (MOS1) (10 µM), the “activity against MOS1” value is given as “still active”. Further, the inhibition at 25 µM on Mos1 transposase (MOS1) (25 µM) is above 50%. The “activity on MOS1” value at MOS1 is reported as “also active against MOS1 activities”. Further, the “differential effect between reactions: strand transfer / processed donor versus 3′processing / unprocessed donor” value on HIV-1 IN [2] is given as “more active on strand transfer reaction than”. For the same compound, on HIV-1 IN [2] (concerted integration, increasing concentrations), the “inhibitory efficiency compared with raltegravir” value is recorded as “inhibitory efficiencies close to raltegravir”. Moreover, the “inhibition of concerted integration” value against HIV-1 IN [2] (increasing concentrations) is reported as “inhibited both activities”. Also, on HIV-1 IN [2] (setting [3]), the inhibition at 50 µM fell in the range of 30 to 60%.

With `Oc1ccc([C@@H]2c3c(O)cc(O)cc3[C@H]3c4c(cc(O)cc4[C@H]2O)O[C@@H]3c2ccc(O)cc2)cc1` [ampelopsin A], the inhibition at 10 µM on HIV-1 IN [2] (setting [3]) is below 5%.

For `OCC1OC(Oc2cc(O)cc(C=Cc3ccc(O)cc3)c2)C(O)C(O)C1O` (stereo not drawn) [E-piceid], the “activity on MOS1” value on MOS1 is given as “not active”. Further, the “differential effect between reactions: strand transfer / processed donor versus 3′processing / unprocessed donor” value at HIV-1 IN [2] is listed as “more active on strand transfer reaction than”. Besides, the “inhibition of concerted integration” value against HIV-1 IN [2] (increasing concentrations) is on record as “inhibited both activities”.

With `Oc1ccc(/C=C/c2cc(O)cc3c2[C@H](c2cc(O)cc(O)c2)[C@@H](c2ccc(O)cc2)O3)cc1` [(+)-E-ε-viniferin], the inhibition at 10 µM at HIV-1 IN [2] (setting [3]) was below 5%.

Regarding `Oc1ccc(/C=C/c2cc(O)cc3c2[C@H](c2cc(O)cc(O)c2)[C@@H](c2ccc(O)c(O)c2)O3)cc1` [E-scirpusin A], the “inhibitory effect on 3′processing” value at HIV-1 IN [1] is on record as “low”. For the same compound, the “inhibition of concerted integration” value against HIV-1 IN [2] (increasing concentrations) is on record as “inhibited both activities”.

For `Oc1ccc([C@H]2Oc3cc(O)cc(/C=C/c4ccc5c(c4)[C@@H](c4cc(O)cc6c4[C@H](c4cc(O)cc(O)c4)[C@@H](c4ccc(O)cc4)O6)[C@H](c4ccc(O)cc4)O5)c3[C@@H]2c2cc(O)cc(O)c2)cc1` [vitisin B, E-vitisin B], the results for the “activity against MOS1” value on Mos1 transposase (MOS1) (10 µM) and at Mos1 transposase (MOS1) (25 µM) were “still active” and “active against MOS1”, respectively. Moreover, the inhibition at 10 µM on HIV-1 IN [2] (setting [3]) was below 5%.

The values above are taken from article PMC3842960, “Natural Stilbenoids Isolated from Grapevine Exhibiting Inhibitory Effects against HIV-1 Integrase and Eukaryote MOS1 Transposase In Vitro Activities” (PLoS ONE, 2013).
